# Measurements published in ChEMBL document CHEMBL3745702, “Synthesis of (3S,4S)-4-aminopyrrolidine-3-ol derivatives and biological evaluation for their BACE1 inhibitory activities” (Bioorg Med Chem Lett, 2016).
# Molecular target: T1, Beta-secretase 2 (Homo sapiens, UniProt Q9Y5Z0)
# T1 sequence (Q9Y5Z0 whole entry): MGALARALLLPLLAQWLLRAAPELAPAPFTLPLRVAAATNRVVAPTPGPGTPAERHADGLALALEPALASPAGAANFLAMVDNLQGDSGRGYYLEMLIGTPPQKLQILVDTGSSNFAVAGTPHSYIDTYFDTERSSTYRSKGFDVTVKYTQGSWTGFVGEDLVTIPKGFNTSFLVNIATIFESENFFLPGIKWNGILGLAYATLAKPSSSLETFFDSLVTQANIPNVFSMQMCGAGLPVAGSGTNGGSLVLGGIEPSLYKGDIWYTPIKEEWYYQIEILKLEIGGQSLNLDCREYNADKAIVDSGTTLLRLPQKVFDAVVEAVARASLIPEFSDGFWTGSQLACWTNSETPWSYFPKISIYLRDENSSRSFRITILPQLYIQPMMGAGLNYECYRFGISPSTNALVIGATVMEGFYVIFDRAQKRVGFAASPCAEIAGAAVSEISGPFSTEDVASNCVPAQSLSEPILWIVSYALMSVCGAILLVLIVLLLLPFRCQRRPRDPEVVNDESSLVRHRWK
# Experiment: Inhibition of BACE2 (unknown origin)
# Conditions: not given
row,Compound,IC50
1,Cc1ccc2[nH]c(N[C@H]3CN(C(=O)c4ccccc4)C[C@@H]3OC(=O)c3ccc(-c4ccccc4)cc3)nc2c1,5700 nM
2,CC(C)(C)OC(=O)N1C[C@H](Nc2nc3cc(F)ccc3[nH]2)[C@@H](OCc2ccc(-c3ccccc3)cc2)C1,8900 nM
3,Cc1ccc2[nH]c(N[C@H]3CNC[C@@H]3OC(=O)c3ccc(-c4ccccc4)cc3)nc2c1,4300 nM

# Second part, the molecule after the results:
row,IC50,Compound
1,4400 nM,CC(C)c1ccc(C(=O)O[C@H]2CN(C(=O)OC(C)(C)C)C[C@@H]2Nc2nc3cc(F)ccc3[nH]2)cc1
2,10100 nM,CC(C)(C)OC(=O)N1C[C@H](Nc2nc3cc(F)ccc3[nH]2)[C@@H](OC(=O)c2ccc(-c3ccccc3)cc2)C1

# Tested on: not listed separately
# Experiment: Permeability from apical to basolateral side in MDCK cells at 50 uM
# Format: ADME, cell-based, Canis lupus familiaris
# Conditions: dog
row,Compound,Papp A→B at 50 µM
1,Cc1ccc2[nH]c(N[C@H]3CN(C(=O)c4ccccc4)C[C@@H]3OC(=O)c3ccc(-c4ccccc4)cc3)nc2c1,5.2 ×10⁻⁶ cm/s
2,CC(C)(C)OC(=O)N1C[C@H](Nc2nc3cc(F)ccc3[nH]2)[C@@H](OCc2ccc(-c3ccccc3)cc2)C1,13 ×10⁻⁶ cm/s
3,Cc1ccc2[nH]c(N[C@H]3CNC[C@@H]3OC(=O)c3ccc(-c4ccccc4)cc3)nc2c1,4.8 ×10⁻⁶ cm/s

# Now from value to molecule:
row,Papp A→B at 50 µM,Compound
1,2.3 ×10⁻⁶ cm/s,CC(C)c1ccc(C(=O)O[C@H]2CN(C(=O)OC(C)(C)C)C[C@@H]2Nc2nc3cc(F)ccc3[nH]2)cc1
2,1.5 ×10⁻⁶ cm/s,CC(C)(C)OC(=O)N1C[C@H](Nc2nc3cc(F)ccc3[nH]2)[C@@H](OC(=O)c2ccc(-c3ccccc3)cc2)C1

# Molecular target: T2, Beta-secretase 1 (Homo sapiens, UniProt P56817)
# Experiment: Inhibition of BACE1 in […] PC12 cells expressing APP Sweden mutant
# Format: cell-based, PC-12
# Conditions: not given
# T2 sequence (P56817 whole entry): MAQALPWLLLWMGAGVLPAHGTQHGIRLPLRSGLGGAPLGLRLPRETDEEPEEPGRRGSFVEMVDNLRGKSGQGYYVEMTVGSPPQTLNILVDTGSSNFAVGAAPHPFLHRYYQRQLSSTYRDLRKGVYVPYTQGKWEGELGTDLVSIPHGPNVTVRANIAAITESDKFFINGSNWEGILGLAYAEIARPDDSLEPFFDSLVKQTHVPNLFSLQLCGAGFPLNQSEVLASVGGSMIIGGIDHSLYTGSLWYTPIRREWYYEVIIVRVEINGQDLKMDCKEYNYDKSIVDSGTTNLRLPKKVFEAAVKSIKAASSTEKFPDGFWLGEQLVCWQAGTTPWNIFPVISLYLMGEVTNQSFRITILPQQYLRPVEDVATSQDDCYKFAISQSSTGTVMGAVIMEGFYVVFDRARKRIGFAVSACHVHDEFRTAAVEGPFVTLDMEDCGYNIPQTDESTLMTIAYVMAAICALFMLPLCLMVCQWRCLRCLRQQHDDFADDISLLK
row,IC50,Compound
1,1700 nM,CC(C)(C)OC(=O)N1C[C@H](Nc2nc3cc(F)ccc3[nH]2)[C@@H](OCc2ccc(-c3ccccc3)cc2)C1
2,3200 nM,Cc1ccc2[nH]c(N[C@H]3CNC[C@@H]3OC(=O)c3ccc(-c4ccccc4)cc3)nc2c1

# Molecular target: T3, Cathepsin D (Homo sapiens, UniProt P07339)
# Experiment: Inhibition of cathepsin D (unknown origin)
# Conditions: not given
# T3 sequence (P07339 65-162 limits assumed): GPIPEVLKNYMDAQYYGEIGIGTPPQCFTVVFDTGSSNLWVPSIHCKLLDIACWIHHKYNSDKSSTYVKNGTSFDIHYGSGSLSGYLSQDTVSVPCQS
# T3 sequence (P07339 169-412 limits assumed): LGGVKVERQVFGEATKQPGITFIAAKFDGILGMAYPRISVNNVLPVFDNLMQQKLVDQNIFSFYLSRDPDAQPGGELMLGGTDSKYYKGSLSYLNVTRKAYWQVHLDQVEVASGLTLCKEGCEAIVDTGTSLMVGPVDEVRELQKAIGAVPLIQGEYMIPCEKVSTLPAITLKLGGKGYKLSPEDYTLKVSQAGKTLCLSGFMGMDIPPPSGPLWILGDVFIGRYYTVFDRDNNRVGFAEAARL
row,Compound,IC50
1,Cc1ccc2[nH]c(N[C@H]3CN(C(=O)c4ccccc4)C[C@@H]3OC(=O)c3ccc(-c4ccccc4)cc3)nc2c1,> 10000 nM
2,CC(C)(C)OC(=O)N1C[C@H](Nc2nc3cc(F)ccc3[nH]2)[C@@H](OCc2ccc(-c3ccccc3)cc2)C1,> 10000 nM
3,Cc1ccc2[nH]c(N[C@H]3CNC[C@@H]3OC(=O)c3ccc(-c4ccccc4)cc3)nc2c1,> 10000 nM

# Other lines, results leading:
row,IC50,Compound
1,> 10000 nM,CC(C)c1ccc(C(=O)O[C@H]2CN(C(=O)OC(C)(C)C)C[C@@H]2Nc2nc3cc(F)ccc3[nH]2)cc1
2,> 10000 nM,CC(C)(C)OC(=O)N1C[C@H](Nc2nc3cc(F)ccc3[nH]2)[C@@H](OC(=O)c2ccc(-c3ccccc3)cc2)C1

# Molecular target: T2, Beta-secretase 1
# Experiment: Inhibition of BACE1 in […] PC12 cells expressing APP Sweden mutant at 10 uM
# Format: cell-based
# Conditions: PC-12
row,inhibition,Compound
1,34%,CC(C)c1ccc(C(=O)O[C@H]2CN(C(=O)OC(C)(C)C)C[C@@H]2Nc2nc3cc(F)ccc3[nH]2)cc1
2,52%,Cc1ccc2[nH]c(N[C@H]3CN(C(=O)c4ccccc4)C[C@@H]3OC(=O)c3ccc(-c4ccccc4)cc3)nc2c1
3,40%,CC(C)(C)OC(=O)N1C[C@H](Nc2nc3cc(F)ccc3[nH]2)[C@@H](OC(=O)c2ccc(-c3ccccc3)cc2)C1

# Molecular target: T2, Beta-secretase 1
# Experiment: Inhibition of BACE1 (unknown origin) by FRET assay
# Conditions: not given
row,Compound,IC50
1,Cc1ccc2[nH]c(N[C@H]3CN(C(=O)OC(C)(C)C)C[C@@H]3OC(=O)c3cccc(-c4ccc(F)cc4)c3)nc2c1,190 nM
2,Cc1ccc2[nH]c(N[C@H]3CN(C(=O)c4ccccc4)C[C@@H]3OC(=O)c3ccc(-c4ccccc4)cc3)nc2c1,390 nM
3,CN(C)c1ccc(C(=O)O[C@H]2CN(C(=O)OC(C)(C)C)C[C@@H]2Nc2nc3cc(F)ccc3[nH]2)cc1,1350 nM
4,CC(C)(C)OC(=O)N1C[C@H](Nc2nc3cc(F)ccc3[nH]2)[C@@H](OCc2ccc(-c3ccccc3)cc2)C1,120 nM
5,Cc1ccc2[nH]c(N[C@H]3CNC[C@@H]3OC(=O)c3ccc(-c4ccccc4)cc3)nc2c1,660 nM
6,CC(C)c1ccc(CO[C@H]2CN(CC(N)=O)C[C@@H]2Nc2nc3cc(F)ccc3[nH]2)cc1,> 5000 nM
7,COc1ccc2[nH]c(N[C@H]3CN(C(=O)OC(C)(C)C)C[C@@H]3OC(=O)c3ccc(-c4ccccc4)cc3)nc2c1,450 nM
8,CC(C)(C)OC(=O)N1C[C@H](Nc2nc3cc(Cl)ccc3[nH]2)[C@@H](OC(=O)c2cccc(Oc3ccccc3)c2)C1,360 nM
9,CC(C)c1ccc(CO[C@H]2CN(CCO)C[C@@H]2Nc2nc3cc(F)ccc3[nH]2)cc1,> 5000 nM
10,CC(C)c1ccc(CO[C@H]2CNC[C@@H]2Nc2nc3cc(F)ccc3[nH]2)cc1,> 5000 nM
11,CC(C)c1ccc(CO[C@H]2CN(C(=O)OC(C)(C)C)C[C@@H]2Nc2nc3cc(F)ccc3[nH]2)cc1,730 nM

# Next, values leading:
row,IC50,Compound
1,3150 nM,CCCS(=O)(=O)N1C[C@H](Nc2nc3cc(F)ccc3[nH]2)[C@@H](OC(=O)c2ccc(N(C)C)cc2)C1
2,70 nM,CC(C)c1ccc(C(=O)O[C@H]2CN(C(=O)OC(C)(C)C)C[C@@H]2Nc2nc3cc(F)ccc3[nH]2)cc1
3,640 nM,CCCS(=O)(=O)N1C[C@H](Nc2nc3cc(F)ccc3[nH]2)[C@@H](OCc2ccc(C(C)C)cc2)C1
4,570 nM,COC(=O)CN1C[C@H](Nc2nc3cc(C)ccc3[nH]2)[C@@H](OC(=O)c2ccc(-c3ccccc3)cc2)C1
5,50 nM,CC(C)(C)OC(=O)N1C[C@H](Nc2nc3cc(F)ccc3[nH]2)[C@@H](OC(=O)c2ccc(-c3ccccc3)cc2)C1
6,720 nM,CC(=O)N1C[C@H](Nc2nc3cc(C)ccc3[nH]2)[C@@H](OC(=O)c2ccc(-c3ccccc3)cc2)C1
7,670 nM,CCCS(=O)(=O)N1C[C@H](Nc2nc3cc(F)ccc3[nH]2)[C@@H](OC(=O)c2ccc(C(C)C)cc2)C1
8,210 nM,Cc1ccc2[nH]c(N[C@H]3CN(C(=O)OC(C)(C)C)C[C@@H]3OC(=O)c3ccc(-c4ccccc4)cc3)nc2c1
9,440 nM,CC(C)(C)OC(=O)N1C[C@H](Nc2nc3cc(Cl)ccc3[nH]2)[C@@H](OC(=O)c2ccc(-c3ccccc3)cc2)C1
10,480 nM,CC(C)c1ccc(CO[C@H]2CN(S(=O)(=O)c3ccccc3)C[C@@H]2Nc2nc3cc(F)ccc3[nH]2)cc1
11,720 nM,CC(C)c1ccc(C(=O)O[C@H]2CN(S(=O)(=O)c3ccccc3)C[C@@H]2Nc2nc3cc(F)ccc3[nH]2)cc1

# Molecular target: T2, Beta-secretase 1
# Experiment: Inhibition of BACE1 (unknown origin)
# Conditions: not given
row,IC50,Compound
1,600 nM,COc1ccc(N2CCN([C@@H]3CN(C(=O)Nc4cc(Cl)cc(Cl)c4)CC[C@H]3OC(=O)c3ccc(Oc4ccccc4)cc3)CC2)cc1

# Molecular target: T3, Cathepsin D
# Experiment: Inhibition of cathepsin D (unknown origin) at 10 uM
# Conditions: not given
row,Compound,inhibition
1,Cc1ccc2[nH]c(N[C@H]3CN(C(=O)c4ccccc4)C[C@@H]3OC(=O)c3ccc(-c4ccccc4)cc3)nc2c1,4.2%
2,CC(C)(C)OC(=O)N1C[C@H](Nc2nc3cc(F)ccc3[nH]2)[C@@H](OCc2ccc(-c3ccccc3)cc2)C1,5.7%
3,Cc1ccc2[nH]c(N[C@H]3CNC[C@@H]3OC(=O)c3ccc(-c4ccccc4)cc3)nc2c1,4.5%

# Now from value to molecule:
row,inhibition,Compound
1,1.4%,CC(C)c1ccc(C(=O)O[C@H]2CN(C(=O)OC(C)(C)C)C[C@@H]2Nc2nc3cc(F)ccc3[nH]2)cc1
2,1.1%,CC(C)(C)OC(=O)N1C[C@H](Nc2nc3cc(F)ccc3[nH]2)[C@@H](OC(=O)c2ccc(-c3ccccc3)cc2)C1
